Results taken from patent publication US11040952B2, “Phthalazinone compound, method for preparation thereof, pharmaceutical composition thereof, and use thereof” (SHANGHAI INSTITUTE OF MATERIA MEDICA, CHINESE ACADEMY OF …, priority 2017, dated 2021).
pIC50: −log10 of the molar value. Where two headings read alike, the source gives them in different places.

Assays:
[1] = MTT assay for cytotoxicity; type: cell-based, Human; conditions: human, HepG2.2.15 cells, half (50%) lethal concentration
Method in brief: (§1)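 HBV-transfected HepG2.2.15 cells were cultured with compound for 8 days at 37 °C in DMEM/10% FBS, with medium changed on day 4. Viability was read by MTT (4 h, then 12 h lysis, OD570) against control wells. CC50 is the concentration cutting viability by 50%.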

HBV = HBV DNA content in the supernatant of cell culture (real-time PCR); type: cell-based, hepatitis B virus (HBV); conditions: inhibition of HBV DNA replication, HepG2.2.15 supernatant, 8 days
Method in brief: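 HepG2.2.15 cells stably carrying full-length HBV exposed to compounds for 8 days in DMEM with 10% FBS, medium renewed on day 4. Supernatant virion HBV DNA extracted and quantified by real-time PCR against a 1e^7-1e^4 IU/ml standard curve; IC50 calculated.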

HBV capsid = biological target: T1, HBV capsid (Hepatitis B virus genotype D subtype ayw, UniProt P03146); assay: HBV capsid assembly, non-denaturing agarose gel electrophoresis; type: cell-based; conditions: FIG. 1; for content of HBV DNA in the capsid: Southern blot with HBV-specific probes; for generation of abnormal capsid (electrophoretic migration): non-denaturing agarose gel, anti-HBcAg Western blot
T1 construct: expressed in transfected cells
T1 sequence (P03146 whole entry): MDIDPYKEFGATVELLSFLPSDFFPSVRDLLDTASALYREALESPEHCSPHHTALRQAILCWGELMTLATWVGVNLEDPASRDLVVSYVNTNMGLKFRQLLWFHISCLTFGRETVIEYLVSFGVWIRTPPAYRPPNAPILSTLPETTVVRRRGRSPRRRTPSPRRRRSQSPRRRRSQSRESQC
Protocol: 1×10^6 dispersed cells were added with […] of cell lysate (50 mM Tris-HCl pH 7.5, 1 mM EDTA, 0.5% Nonidet P-40), and lysed on ice for 15 min, with vortexing every 5 min to make sure that the cells were sufficiently lysed. The lysed cells were centrifuged at 10,000×g for 10 min at 4° C. to remove nuclei and cell debris. 20 μl of the cell lysate was added into the well of 1.2% or 1.8% agarose gel. Electrophoresis was run at 70V for 2.5 h at 4° C. […] After electrophoresis, the membrane-transferring was performed by siphon overnight. One sample was transferred to a nitrocellulose membrane (Amersham™ Hybond-ECL, GE), and the capsid was detected with anti-HBcAg antibody (Abcam) using Western blot method; another sample was in situ denatured with a denaturing solution (1.5 M NaCl, 0.5 M NaOH) for 45 min, neutralized with a neutralizing solution (1.5 M NaCl, 1 M Tris-HCl pH 7.4) for 45 min, and transferred to a nylon membrane (Amersham™ Hybond-N+, GE), and then the level of nucleic acid in the capsid was detected with HBV-specific probes by using Southern blot method.

HepG2.2.15 cells = assay: MTT assay for cytotoxicity; type: cell-based, Human; conditions: 8 days, half (50%) lethal concentration
Method in brief: as §1

[2] = Tissue distribution in mice; type: in vivo; conditions: po 10 mg/kg; for concentration at 1 h / concentration at 3 h / concentration at 8 h: mouse
Protocol: 10 μl of a plasma and tissue sample was placed in a 1.5 ml centrifuge tube, added with 100 μl of an internal standard solution (5.00 ng/ml verapamil and 50.0 ng/ml Glibenclamide solution in acetonitrile), vortexed for 60 seconds, and then centrifuged for 3 min (at 12000 rpm); 75 μl of the supernatant was transferred to a 96-well plate loaded with an equal volume of water, and shaken for mixing well and then analyzed. The injection volume was 10 μl. Internal standard: an appropriate amount of verapamil and glibenclamide standards were dissolved and diluted in dimethyl sulfoxide (DMSO), shaken for mixing well, and prepared into a stock solution with a mass concentration of 2000 μg/ml, which was further diluted into internal standard working solutions of 5.00 ng/ml and 50.0 ng/ml. Stock solution: an appropriate amount of the compound was weighted and formulated into a 2.00 mg/ml stock solution with DMSO. Working solution: The stock solution was stepwisely diluted to obtain the solutions at each gradient concentration. 5.00 μl of reference standard working solution was added to 45.0 μl of a mice blank plasma and blank tissue. Then it was treated according to the method described in the section of “Sample pretreatment method”. Administration solution: a certain amount of a compound was precisely weighed and formulated into a 2.00 mg/ml milky white suspension in a ratio of 2.5% DMSO+97.5% (0.5% MC). Approximately 0.1 ml of orbital blood and liver was collected in EDTAK2 for anticoagulation from each animal that had been anesthetized with isoflurane. For the PO group, the blood was collected at 1 h, 3 h, and 8 h after administration of the test compound. After collection, the blood sample was analyzed by using comparative compounds I-70 and I-88.

[3] = Hepatitis B virus, HepG2.2.15, 192 h
[4] = liver, 1 h, read-out: Mean drug concentration, Liver
[5] = liver, 3 h, read-out: Mean drug concentration, Liver
[6] = liver, 8 h, read-out: Mean drug concentration, Liver
[7] = plasma, 1 h, read-out: Mean drug concentration, Plasma
[8] = plasma, 3 h, read-out: Mean drug concentration, Plasma
[9] = plasma, 8 h, read-out: Mean drug concentration, Plasma

SMILES | CC50 at 8 days [1] [nM] | pIC50 (HBV; [3]) | content of HBV DNA in the capsid (HBV capsid) | generation of abnormal capsid (electrophoretic migration) (HBV capsid) | concentration at 1 h [2, 4] [ng/g] | concentration at 3 h [2, 5] [ng/g] | concentration at 1 h [2, 7] [ng/mL] | concentration at 3 h [2, 8] [ng/mL] | concentration at 8 h [2, 9] [ng/mL] | further results
O=c1c2ccccc2c(-c2cccnc2F)nn1Cc1ccc(Cl)cc1 [Compound I-3] | > 100000 | 6.30 | significantly reduced | induce the generation of an abnormal capsid with faster electrophoretic migration speed |  |  |  |  |  | 
COc1ccc(-c2nn(Cc3ccc(Cl)cc3)c(=O)c3ccccc23)c(F)n1 [Compound I-4] |  |  |  |  |  |  |  |  |  | CC50 (HepG2.2.15 cells): > 100000 nM; pIC50 (HBV): 5.51
O=c1c2ccccc2c(-c2ccc(F)nc2F)nn1Cc1ccc(Cl)cc1 [Compound I-9] | 40700 | 6.52 | significantly reduced | induce the generation of an abnormal capsid with faster electrophoretic migration speed |  |  |  |  |  | 
Cc1ccc(-c2nn(Cc3ccc(Cl)cc3)c(=O)c3ccccc23)c(F)n1 [Compound I-10] | 81800 | 7.00 | significantly reduced | induce the generation of an abnormal capsid with faster electrophoretic migration speed | 476 | 318 | 61 | 12.5 |  | concentration at 8 h [2, 6]: 2.91 ng/g; liver targeting [2]: good liver targeting in mice; Mean drug concentration, Plasma ([2]; 8 h): BLQ
Nc1ccc(-c2nn(Cc3ccc(Cl)cc3)c(=O)c3ccccc23)c(F)n1 [Compound I-11] | 22600 | 6.05 | significantly reduced | induce the generation of an abnormal capsid with faster electrophoretic migration speed | 1220 | 1410 | 33.3 | 32.5 | 23 | concentration at 8 h [2, 6]: 815 ng/g; liver targeting [2]: good liver targeting in mice
CNc1ccc(-c2nn(Cc3ccc(Cl)cc3)c(=O)c3ccccc23)c(F)n1 [Compound I-12] | 15700 | 6.22 | significantly reduced | induce the generation of an abnormal capsid with faster electrophoretic migration speed |  |  |  |  |  | 
COc1ccc(-c2nn(Cc3ccc(Cl)cc3)c(=O)c3ccccc23)c(F)n1 [Compound I-20] |  |  |  |  |  |  |  |  |  | CC50 (HepG2.2.15 cells): 33300 nM; pIC50 (HBV): 5.89
[2H]C(c1ccc(Cl)cc1)n1nc(-c2ccc(C)nc2F)c2ccccc2c1=O (stereo not drawn) [Compound I-24] | > 100000 | 6.40 | significantly reduced | induce the generation of an abnormal capsid with faster electrophoretic migration speed |  |  |  |  |  | 
[2H]C(c1ccc(Cl)cc1)n1nc(-c2ccc(F)nc2F)c2ccccc2c1=O (stereo not drawn) [Compound I-26] | > 100000 | 6.05 | significantly reduced | induce the generation of an abnormal capsid with faster electrophoretic migration speed |  |  |  |  |  | 
Cc1cc(-c2ccc(F)nc2F)nn(Cc2ccc(Cl)cc2)c1=O [I-70, reference compound] |  |  |  |  |  |  | 161 | 71.7 | 17.3 | Mean drug concentration, Liver ([2]; 1 h): BLQ^a; Mean drug concentration, Liver ([2]; 3 h): BLQ; Mean drug concentration, Liver ([2]; 8 h): BLQ
Cc1ccc(-c2cc(C)c(=O)n(Cc3ccc(Cl)cc3)n2)c(F)n1 [I-88, reference compound] |  |  |  |  | 34.2 | 9.64 | 169 | 180 | 0.993 | Mean drug concentration, Liver ([2]; 8 h): BLQ
N#Cc1ccc(Cn2nc(-c3ccc(F)nc3F)c3ccccc3c2=O)cc1 [IV-5] | > 100000 | 6.92 |  |  | 1030 | 1050 | 154 | 63.2 | 80.1 | concentration at 8 h [2, 6]: 1190 ng/g; liver targeting [2]: good liver targeting in mice
N#Cc1ccc(Cn2nc(-c3ccc(C(F)(F)F)nc3F)c3ccccc3c2=O)cc1 [IV-15] | > 100000 | 6.57 |  |  | 7270 | 4460 | 549 | 437 | 257 | concentration at 8 h [2, 6]: 2800 ng/g; liver targeting [2]: good liver targeting in mice
CN(C)CCNc1ccc(-c2nn(Cc3ccc(C#N)cc3)c(=O)c3ccccc23)c(F)n1 [IV-37] |  |  |  |  |  |  |  |  |  | CC50 (HepG2.2.15 cells): 86500 nM; pIC50 (HBV): 5.66
